The record followed here is US10344026B2, “Compositions and methods of targeting mutant K-ras” (NANTBIO, INC., priority 2017, dated 2019).

Bounds are passed on as bounds.

What all share (assay type): cell-based
Assay [1] relates to phospho-Akt in A375 (Wild-type). The experiment in a line: In-Cell Western phospho-Akt, A375. Particulars: Homo sapiens, A-375, 1 h; A375, one hour treatment; read-out: In-Cell Western A375 (Wild-type) Akt (P). As to the method: (§1) In-cell phosphorylation assays for Erk and Akt were performed on several of the compounds and exemplary results are shown in Table 3 below using HCC827 and A375 cell lines for wild type K-Ras and Panc1 and Panc10.05 cell lines for G12D K-Ras mutants. Results are expressed in μM and corresponding structures are shown in FIGS. 2A-2G and Examples 1-152, above.
(§2) Cells are seeded in complete medium into black sided, clear-bottom 384-well microplates at 3000 cells/[…]/well. Plates are returned to 37° C. CO2 incubator for 18 hr. Drug is made as 200× in DMSO and diluted into medium to 10×. To each well is added 4 ul 10× test article or controls, and plates are returned to the incubator. Final assay DMSO concentration is 0.5%. After one hour, cells are fixed in formaldehyde, rinsed & permeabilized with triton X-100, and blocked with BSA/Goat serum blocking solution. Primary phospho-Akt and phospho-ERK antibodies are added and plates are incubated overnight at 4° C. Plates are rinsed with Tween-20 wash buffer and secondary antibody (Goat anti-rabbit, Thermofisher) is added. After 2 hours, plates are rinsed in Tween-20 wash buffer, and then PBS. Plates are imaged on the Celigo (Nexcelom) and cellular fluorescence is quantitated. Full inhibition of phospho-Akt is achieved with 1 uM BEZ235 (Sellekchem), while full inhibition of phospho-ERK is achieved with 1 uM MEK Inhibitor II Calbiochem). EC50 values are calculated using Graphpad Prism.

The test system of assay [2] is HCC827 (K-Ras wild type cell line). The assay can be described thus: Viability assay (CellTiterBlue, 72 hr) HCC827. The following applies: Homo sapiens, GI50, CellTiterBlue, HCC827 K-Ras wild-type. A digest of the protocol:
(§3)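 Cells were seeded at 1000 per well and allowed 18 hr at 37 °C in CO2 before compound addition (final DMSO 0.5%). After 72 hr exposure, CellTiterBlue was added for 3 hr and fluorescence read at Ex550/Em590. GI50 values were calculated against DMSO (100%) and 100 uM tamoxifen (0%) controls.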
(Alamar Blue is a resazurin reagent that responds to reducing activity.)

For assay [3], the system named is A375 (K-Ras wild type cell line). The assay can be described thus: Viability assay (CellTiterBlue, 72 hr) A375. The following applies: Homo sapiens, A-375, GI50, CellTiterBlue. As for the experimental part: Viability assays were performed on exemplary compounds and Table 2 below lists exemplary results for selected compounds tested on K-Ras wild type cell lines (Ishikawa, U87-MG, HCC827, and A375) and various K-Ras mutant cell lines (Panc1-G12D; Panc10.05-G12D; HCT116-G31D). Results are expressed in μM and corresponding structures are shown in FIGS. 2A-2G and Examples 1-152, above.
Cells are counted and seeded at 1000 cells/36 ul medium/well into 384-well microplates. Cells are returned to 37° C. CO2 incubator for 18 hr. Drug is made as 200× in DMSO and diluted into medium to 10×. To each well is added 4 ul 10× drug, and plates are returned to the incubator. Final assay DMSO concentration is 0.5%. After 72 hr, 8 ul CellTiterBlue (Promega) is added to each well. After 3 hr, fluorescence (Ex550/Em590) is determined on the Victor Plate Reader (Perkin Elmer). Assay range is determined by DMSO control (100% viability) and 100 uM tamoxifen (0% viability). GI50 values are calculated using Graphpad Prism.

Assay [4] deals with phospho-ERK in Panc10.05 (G12D). The assay can be described thus: In-Cell Western phospho-ERK, Panc10.05. The following applies: Homo sapiens, Panc1005, 1 h; Panc10.05, one hour treatment; read-out: In-Cell Western Panc10.05 (G12D) Erk (P). A digest of the protocol: (§4)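 Cells were seeded at 3000 cells/well, incubated 18 hr at 37° C, then treated with compound for 1 hr (0.5% DMSO final). After fixation, permeabilization and blocking, phospho-Akt or phospho-ERK antibodies were applied overnight at 4° C, followed by secondary antibody; cellular fluorescence was imaged and EC50 calculated.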

Another assay has as its system HCT116-G31D. The assay can be described thus: Viability assay (CellTiterBlue, 72 hr) HCT116. Particulars: Homo sapiens, HCT-116, GI50, CellTiterBlue, HCT116 K-Ras G13D, read-out: 72 hr Cell Viability HCT116 (G13D). A digest of the protocol: as §3
The subject of assay [5] is Ishikawa (K-Ras wild type cell line). The assay can be described thus: Viability assay (CellTiterBlue, 72 hr) Ishikawa. Particulars: Homo sapiens, GI50, CellTiterBlue, Ishikawa K-Ras wild-type. In outline:
as §3

In another assay the target is T1, K-Ras G12D (Homo sapiens, UniProt P01116, G12D).
T1 construct: expressed in transfected cells; host or cells: 293H cells
T1 sequence (P01116 whole entry G12D): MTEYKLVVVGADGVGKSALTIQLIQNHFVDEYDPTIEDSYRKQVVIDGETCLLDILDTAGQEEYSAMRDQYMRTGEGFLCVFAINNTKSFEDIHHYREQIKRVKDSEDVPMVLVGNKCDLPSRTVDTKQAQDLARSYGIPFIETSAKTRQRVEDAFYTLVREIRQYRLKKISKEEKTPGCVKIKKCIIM
The experiment in a line: G-LISA Ras activation, 293H cells transfected with G12D mutant. The following applies: compound 1 hour. In outline:
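Cells: 293H, Ras plasmid transfection (5 μg). Cpd 3.125-25 μM, 1 h; WT cells + EGF 100 ng/ml, 2 min. Lysed on ice; active Ras by G-LISA.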

Another assay relates to Panc1-G12D. The assay can be described thus: Viability assay (CellTiterBlue, 72 hr) Panc1. Particulars: Homo sapiens, PANC-1, GI50, CellTiterBlue, Panc1 K-Ras G12D, read-out: 72 hr Cell Viability Panc1 (G12D). A digest of the protocol: as §3
The next assay has as its system Panc10.05-G12D. The assay can be described thus: Viability assay (CellTiterBlue, 72 hr) Panc10.05. The following applies: Homo sapiens, Panc1005, GI50, CellTiterBlue, Panc10.05 K-Ras G12D, read-out: 72 hr Cell Viability Panc10.05 (G12D). In outline: as §3
The subject of assay [6] is phospho-ERK in HCC827 (Wild-type). The assay can be described thus: In-Cell Western phospho-ERK, HCC827. The following applies: Homo sapiens, 1 h; HCC827, one hour treatment; read-out: In-Cell Western HCC827 (Wild-type) Erk (P). As to the method: as §1, §2
Assay [7] relates to phospho-ERK in A375 (Wild-type). The assay can be described thus: In-Cell Western phospho-ERK, A375. The following applies: Homo sapiens, A-375, 1 h; A375, one hour treatment; read-out: In-Cell Western A375 (Wild-type) Erk (P). As for the experimental part: as §1, §2
Assay [8] concerns phospho-ERK in Panc1 (G12D). The experiment in a line: In-Cell Western phospho-ERK, Panc1. Particulars: Homo sapiens, PANC-1, 1 h; Panc1, one hour treatment; read-out: In-Cell Western Panc1 (G12D) Erk (P). A digest of the protocol:
as §4

The test system of assay [9] is phospho-Akt in Panc10.05 (G12D). The assay can be described thus: In-Cell Western phospho-Akt, Panc10.05. Particulars: Homo sapiens, Panc1005, 1 h; Panc10.05, one hour treatment; read-out: In-Cell Western Panc10.05 (G12D) Akt (P). A digest of the protocol:
as §4

Assay [10] deals with phospho-Akt in Panc1 (G12D). The assay can be described thus: In-Cell Western phospho-Akt, Panc1. The following applies: Homo sapiens, PANC-1, 1 h; Panc1, one hour treatment; read-out: In-Cell Western Panc1 (G12D) Akt (P). A digest of the protocol:
as §4

Assay [11] has as its system U87-MG (K-Ras wild type cell line). The experiment in a line: Viability assay (CellTiterBlue, 72 hr) U87-MG. Particulars: Homo sapiens, U-87 MG, GI50, CellTiterBlue, U87-MG K-Ras wild-type. A digest of the protocol: as §3

As to `CC(C)c1cc(C(=O)Nc2nc(-c3ccc4c(c3)CCC(=O)N4)cs2)n(C)n1` [Compound 44, 3-isopropyl-1-methyl-N-(4-(2-oxo-1,2,3,4-tetrahydroquinolin-6-yl)thiazol-2-yl)-1H-pyrazole-5-carboxamide], the EC50 in assay [1], in assay [4], in assay [6], in assay [7], in assay [8] and in assay [9] was above 25 µM each time. For the same compound, the EC50 in [10] was above 25 µM. Besides, the IC50 in assay [2] was above 25 µM; in [3], above 25 µM; in the assay on HCT116-G31D, above 25 µM; in assay [5], above 25 µM; at K-Ras G12D, 4 µM; in the assay with Panc1-G12D, above 25 µM. Besides, the IC50 in the assay with Panc10.05-G12D is 2 µM; in assay [11], above 25 µM.

As to `Cc1nc(C)c(C(=O)Nc2nc(-c3ccc4c(c3)CCC(=O)N4CCC(=O)N(C)C)cs2)o1` [Compound 103, N-(4-(1-(3-(dimethylamino)-3-oxopropyl)-2-oxo-1,2,3,4-tetrahydroquinolin-6-yl)thiazol-2-yl)-2,4-dimethyloxazole-5-carboxamide], the EC50 in assay [1] is above 25 µM; in assay [4], above 25 µM; in assay [6], 14 µM; in assay [7] it was 29 µM; in assay [8], above 25 µM; in assay [9], above 25 µM. For the same compound, the EC50 in assay [10] was above 25 µM. The IC50 is above 25 µM in [2]; above 25 µM in [3]; 25 µM in the assay on HCT116-G31D; above 25 µM in [5]; 14.9 µM at K-Ras G12D; above 25 µM in the assay with Panc1-G12D. In addition, the IC50 in the assay with Panc10.05-G12D is 5 µM; in assay [11], above 25 µM.

`CCc1nc(C)c(C(=O)Nc2nc(-c3ccc4c(c3)CCC(=O)N4Cc3cncnc3)cs2)o1` [Compound 104, 2-ethyl-4-methyl-N-(4-(2-oxo-1-(pyrimidin-5-ylmethyl)-1,2,3,4-tetrahydroquinolin-6-yl)thiazol-2-yl)oxazole-5-carboxamide]: the EC50 in assay [1], in assay [4], in assay [6], in assay [7], in [8] and in assay [9] was above 25 µM throughout. In addition, the EC50 in [10] was above 25 µM. For the same compound, the IC50 was above 25 µM in assay [2]; 6 µM in assay [3]; 5 µM in the assay with HCT116-G31D; above 25 µM in assay [5]; 22 µM in the assay with Panc1-G12D; 17 µM in the assay with Panc10.05-G12D. The compound further showed an IC50 in [11] above 25 µM.

For the compound `Cc1nc(C)c(C(=O)Nc2nc(-c3ccc4c(c3)CCC(=O)N4CCCN(C)C)cs2)o1` [Compound 98, N-(4-(1-(3-(dimethylamino)propyl)-2-oxo-1,2,3,4-tetrahydroquinolin-6-yl)thiazol-2-yl)-2,4-dimethyloxazole-5-carboxamide], the EC50 in assay [1], in [4], in [6], in [7], in assay [8] and in assay [9] was above 25 µM throughout. In addition, the EC50 in [10] is above 25 µM. In addition, the IC50 is 5 µM in assay [2]; 9 µM in assay [3]; above 25 µM with HCT116-G31D; 11 µM in [5]; 13 µM in the assay with Panc1-G12D; above 25 µM with Panc10.05-G12D. The compound further gave an IC50 in assay [11] above 25 µM.

As to `Cc1nc(C(=O)Nc2nc(-c3ccc4c(c3)CCC(=O)N4)cs2)c(C)s1` [Compound 20, 2,5-dimethyl-N-(4-(2-oxo-1,2,3,4-tetrahydroquinolin-6-yl)thiazol-2-yl)thiazole-4-carboxamide], the EC50 in [1], in assay [4], in assay [6], in assay [7], in [8] and in assay [9] was above 25 µM throughout. Further, the EC50 in [10] is above 25 µM. Besides, the IC50 (in assay [2]; in [3]; with HCT116-G31D; in assay [5]; in the assay with Panc1-G12D; in the assay on Panc10.05-G12D) was above 25 µM throughout. In addition, the IC50 in assay [11] was above 25 µM.

In the case of `O=C1CCc2cc(-c3csc(NC(=O)c4ccnn4-c4ccccc4)n3)ccc2N1` [Compound 47, N-(4-(2-oxo-1,2,3,4-tetrahydroquinolin-6-yl)thiazol-2-yl)-1-phenyl-1H-pyrazole-5-carboxamide], the EC50 in assay [1], in assay [4], in assay [6], in assay [7], in assay [8] and in assay [9] was above 25 µM in each case. In addition, the EC50 in assay [10] was above 25 µM. The IC50 (in assay [2]; in assay [3]; with HCT116-G31D; in assay [5]; in the assay on Panc1-G12D; with Panc10.05-G12D) was above 25 µM each time. The compound also showed an IC50 in assay [11] above 25 µM.
